# Test system: Staphylococcus aureus bacteria
# Test: 2 Hours % Live Bacteria Test
# Format: cell-based
# Conditions: standard solution 0.5 wt-% in DI, calculated Ag+ weight 22,224 μg
# Procedure: The effectiveness of a sample was tested using a L-7012, Bacterial Viability Kit, available from Molecular Probes (Eugene, Oreg.). The procedure is outlined below using the red, propidium iodide dye, and green, SYTO 9 dye, contained in the kit to stain the live and dead bacteria.
# Preparation of bacteria solution: Staphylococcus aureus bacteria were grown in Trypticase (Tryptic) Soy Broth (TSB) medium overnight. Bacteria were concentrated by centrifugation at 10,000× gravity for 15 minutes (min). Supernatant was removed and the pellet was re-suspended in MilliQ water (filtered through a 0.2 μm pore-size filter) or in Butterfield phosphate buffer (from Hardy Diagnostics, Santa Maria, Calif.). […]
# Sample preparation: All prototypes were prepared by punching out a 1-inch (2.54-cm) diameter samples using a stainless steel punch; sometimes as indicated in the examples a 1-inch (2.54 cm) disk was further cut with scissors in eighths and then evaluated. […]
# Bacteria labeling and Anti-microbial testing: 7 m]L of bacteria solution at initial concentration of approximately 1×10^8 bacteria/mL were pipetted into a 50 mL conical tube containing the sample. […] These solutions were then measured by flow cytometry. Cell viability was measured using the BD FACSCaliber flow cytometer (made by Becton Dickinson & Company, Franklin Lakes, N.J.). […]
structure (smiles),measurement,value
"O=[N+]([O-])[O-].[Ag+] [silver nitrate, Silver Nitrate]",% live bacteria after 2 hours,15.8%

# Source: patent publication US20040180093A1, “Polymer compositions with bioactive agent, medical articles, and methods” (3M Innovative Properties Company, priority 2003, published 2004)
